Data on 104 compounds can be found in PubChem BioAssay AID1996.

Structures are written as SMILES. Converted amounts (≈) assume the structure as drawn.

The conditions of the data set: buffer; pH 7.4; 200.0 µM.
For the compound `COc1ccc(NC(=O)CN2CCN(S(=O)(=O)N(C)C)CC2)cc1`, the solubility (kinetic) (usually solubility judged after dilution from a stock solution rather than from solid) was over 53.5 µg/mL.

`CC(Oc1ccc(Br)cc1Br)C(=O)Nc1cccnc1Cl` (centres undefined): the kinetic solubility is under 0.5 µg/mL. `O=S(=O)(c1ccccc1)N1CCN(c2ccccc2)CC1` gave a kinetic solubility of 0.4 µg/mL (≈ 1.32 µM). In the case of `Cc1ccc(S(=O)(=O)NC23CC4CC(CC(C4)C2)C3)cc1` it was 2.4 µg/mL (≈ 7.86 µM); in that of `O=C(O)CNc1ccc(S(=O)(=O)C(F)(F)F)cc1[N+](=O)[O-]`, 44.7 µg/mL (≈ 136 µM); in that of `O=C(/C=C/c1ccc(-c2ccc(F)cc2)o1)N1CCCC1`, 31.7 µg/mL (≈ 111 µM). The result for `CN1CCCN(C(=O)c2cccc(Cl)c2)CC1` reads over 37.9 µg/mL; that for `Cc1ccc(Cl)cc1NC(=O)CON=C(N)c1ccccc1`, 32.4 µg/mL (≈ 102 µM); that for `Cc1csc(SCC(=O)NC(=O)NCCC(C)C)n1`, 22.6 µg/mL (≈ 75 µM).

In the case of `COCCNC(=O)COC(=O)c1cccnc1SC`, the solubility (kinetic) is over 42.6 µg/mL.

Consider `Cc1cnc(NC(=O)COc2ccc3c(c2)CCC3)s1`, for which the kinetic solubility came out at 1.2 µg/mL (≈ 4.16 µM).

`O=[N+]([O-])c1ccc2c(c1N1CCCCC1)=NC1(CCCCC1)[N+]=2[O-]` came in with a kinetic solubility of 47.1 µg/mL (≈ 143 µM). Regarding `O=[N+]([O-])c1ccc(N2CCN(c3ccccc3O)CC2)cc1`, the kinetic solubility was 0.5 µg/mL (≈ 1.67 µM).

`Cc1ccc(NC(=O)CNC(=O)c2cccs2)nc1` showed a solubility (kinetic) of over 41.3 µg/mL. In the case of `CC(=O)c1c(C)nc(-c2ccc(OCC(=O)Nc3ccccc3)cc2)n1O` it was 51.3 µg/mL (≈ 140 µM); in that of `COc1ccc(C(=O)N/C(=C\c2ccc(SC)cc2)C(=O)NCCCn2ccnc2)cc1OC`, 12.3 µg/mL (≈ 25.6 µM); in that of `Cc1cccc(C2=N/C(=C\c3cccs3)C(=O)O2)c1`, 4 µg/mL (≈ 14.9 µM). The result for `CC(=O)NCCc1nc2ccccc2n1Cc1cccc(C)c1` reads over 46.1 µg/mL; that for `Cc1cccc(C(CC(=O)N2CCCCC2)c2ccccc2)c1O` (centres undefined), 0.8 µg/mL (≈ 2.47 µM). The result for `CC(C)CCn1c(=O)[nH]c2ccccc21` reads over 30.6 µg/mL; that for `COc1ccccc1N1C(=O)c2cccc3cccc(c23)C1=O`, under 0.6 µg/mL.

Consider `COc1cccc(N2CCN(C(=O)CSc3ccc(F)cc3)CC2)c1`, for which the solubility (kinetic) worked out at 50.2 µg/mL (≈ 139 µM). The result for `CCOC(=O)c1ccc(NC(=O)c2cc(C)nc3ccccc23)cc1` reads under 0.4 µg/mL; that for `Cc1ccc(CN2CCN(c3ccccc3Cl)CC2)o1`, 10 µg/mL (≈ 34.4 µM); that for `Cc1ccccc1NC(=S)Nc1ccc2[nH]c(=O)[nH]c2c1`, 41.7 µg/mL (≈ 140 µM). In the case of `c1ccc(COc2ccccc2CNC2CCCC2)cc1` it was 38.5 µg/mL (≈ 137 µM); in that of `COc1ccccc1N1CCN(c2nc(C)cc(C)c2C#N)CC1`, 10.4 µg/mL (≈ 32.3 µM).

Regarding `O=C(NCc1ccc2c(c1)OCO2)c1ccccc1`, the solubility (kinetic) was 38 µg/mL (≈ 149 µM). The result for `CC(C)(C)NC(=O)NC(=O)CN1CCN(Cc2ccccc2)CC1` reads 45.3 µg/mL (≈ 136 µM); that for `Nc1nc(NCCO)nc(NCc2ccccc2)c1[N+](=O)[O-]`, 15.6 µg/mL (≈ 51.3 µM); that for `O=C1CCC(=O)N1CC(=O)N(c1ccccc1)c1ccccc1`, 40.4 µg/mL (≈ 131 µM). In the case of `Cc1ccc(SCC(=O)O/N=C(\N)c2cccnc2)cc1` it was 40 µg/mL (≈ 133 µM); in that of `c1ccc(Cc2c[nH]c3ccccc23)cc1`, 6.7 µg/mL (≈ 32.3 µM). In the case of `Nc1cccc2cc(-c3ccccc3)oc12` it was 2.4 µg/mL (≈ 11.5 µM). For `CN(c1ccc(C(=O)Nc2ccc(CC#N)cc2)cc1)S(C)(=O)=O`, the solubility (kinetic) is 4.2 µg/mL (≈ 12.2 µM).

`CCOc1ccccc1NC(=O)Cn1c(=O)sc2ccccc21` registered a solubility (kinetic) of 1.2 µg/mL (≈ 3.65 µM). The result for `O=C(c1ccc(Cl)cc1)N1CCn2c1nc1ccccc12` reads 1.1 µg/mL (≈ 3.69 µM); that for `CC(=O)c1c(C)[nH]c(C(=O)COC(=O)CCNS(=O)(=O)c2ccc(C)c(C)c2)c1C`, 11 µg/mL (≈ 25.3 µM); that for `Cc1c(NCc2ccccc2O)c(=O)n(-c2ccccc2)n1C`, over 46.4 µg/mL. The result for `CCOC(=O)c1c(NC(=O)CN2CCN(C(=O)c3ccco3)CC2)sc(C(N)=O)c1C` reads 5.6 µg/mL (≈ 12.5 µM); that for `Nc1nc(-c2cc3ccccc3o2)cs1`, 3.3 µg/mL (≈ 15.3 µM); that for `Cc1cc(C(=O)NCc2ccco2)c2cc(F)ccc2n1`, 42.3 µg/mL (≈ 149 µM). The result for `COC(=O)c1ccccc1NC(=O)NC1CCCCC1` reads 2.6 µg/mL (≈ 9.41 µM); that for `NC(=O)C1CCN(c2nc3ccccc3nc2NS(=O)(=O)c2ccc(Br)cc2)CC1`, 53.9 µg/mL (≈ 110 µM); that for `O=[N+]([O-])CC(c1ccccc1)P(=O)(c1ccccc1)c1ccccc1` (centres undefined), 9.1 µg/mL (≈ 25.9 µM). The compound `CCOC(=O)c1c[nH]c2ccc3ccccc3c2c1=O` showed a solubility (kinetic) of 10.3 µg/mL (≈ 38.5 µM). In the case of `O=C(O)c1ccccc1NCc1cccnc1` it was over 34.2 µg/mL.

`O=C(NCCc1nc2ccccc2[nH]1)c1ccc([N+](=O)[O-])cc1` registered a solubility (kinetic) of 8.7 µg/mL (≈ 28 µM). In the case of `Cn1cc(C(=O)NCC(=O)Nc2ccccc2Br)cn1` it was over 50.6 µg/mL; in that of `Cc1ccc(Oc2ccc(NS(=O)(=O)c3cccc(C(=O)O)c3)cc2)cc1`, 57.2 µg/mL (≈ 149 µM). The result for `O=C(CN1CCCCCC1)Nc1cc([N+](=O)[O-])ccc1Cl` reads 22.6 µg/mL (≈ 72.5 µM); that for `Cc1nc2c(ccc3nc(NC(=O)C4CC4)sc32)s1`, 2.8 µg/mL (≈ 9.68 µM). The result for `CC(=O)Nc1ccc(S(=O)(=O)N2CCCCC2C(=O)O)cc1` (centres undefined) reads 44.4 µg/mL (≈ 136 µM); that for `CC(Oc1ccccc1)C(=O)N1CCN=C1SCc1cccc(F)c1` (centres undefined), 11.1 µg/mL (≈ 31 µM). Regarding `CCCCn1c(=O)c(C(=O)NCc2ccco2)c(O)c2ccccc21`, the kinetic solubility was under 0.4 µg/mL. In the case of `COc1ccccc1NC(=O)COC(=O)C1CCCC1` it was over 41.6 µg/mL; in that of `Cc1cccc(NC(=O)CCCN2C(=S)NC(C)(C)CC2C)c1C` (centres undefined), over 52.1 µg/mL; in that of `COc1ccc(-c2nc3c(s2)CN(S(C)(=O)=O)CC3)cc1OC`, 10.6 µg/mL (≈ 29.9 µM). In the case of `NS(=O)(=O)c1ccc(NC(=O)CN2CCCc3ccccc32)cc1` it was 19.1 µg/mL (≈ 55.3 µM); in that of `O=C(c1cc2cc(F)ccc2[nH]1)N1CCN(c2cccc(Cl)c2)CC1`, 0.5 µg/mL (≈ 1.4 µM); in that of `O=C(COC(=O)COc1ccccc1)NC1CCS(=O)(=O)C1` (centres undefined), over 49.1 µg/mL.

Turning to `O=C(NCCc1c[nH]c2ccccc12)c1cnccn1`, the solubility (kinetic) is over 39.9 µg/mL. The result for `CCC(C)NC(=O)c1ccccc1SC` (centres undefined) reads over 33.5 µg/mL; that for `CC(=O)Nc1ccc(-c2csc(Nc3cc(C)ccn3)n2)cc1`, 0.4 µg/mL (≈ 1.23 µM). `CC1(NC(=O)CCc2nc3ccccc3c(=O)[nH]2)CCS(=O)(=O)C1` (centres undefined) returned a solubility (kinetic) of 49.2 µg/mL (≈ 141 µM). The result for `Cl.O=C(CN1CCCC1)N1c2ccccc2C=Cc2ccccc21` reads over 51.1 µg/mL; that for `Nc1cncc(C(=O)O)c1`, over 20.7 µg/mL; that for `O=C1NC2(CCCCCC2)C(=O)N1Cc1c(F)cccc1Cl`, 9.6 µg/mL (≈ 29.6 µM). The result for `CC1CC(C)CN(S(=O)(=O)c2ccc3c(c2)CC(=O)N3)C1` (centres undefined) reads 9.4 µg/mL (≈ 30.5 µM); that for `Fc1ccc(-c2noc(-c3ccc4c(c3)CCO4)n2)cc1`, under 0.3 µg/mL; that for `O=C(c1ccc2nccnc2c1)N1CCN(c2ccccc2)CC1`, over 47.8 µg/mL.

For `Clc1ccc(CNc2cnccn2)cc1Cl`, the solubility (kinetic) is over 38.1 µg/mL.

`Fc1ccc2nc(N3CCCC3)sc2c1` returned a kinetic solubility of 15.6 µg/mL (≈ 70.2 µM). In the case of `Cc1ccc(NC(=O)Cn2ccnc2)cc1C` it was 30.4 µg/mL (≈ 133 µM). `O=C(CSc1ccc(C(F)(F)F)cc1[N+](=O)[O-])N1CCOCC1` registered a kinetic solubility of 22.9 µg/mL (≈ 65.4 µM). In the case of `Cc1ccc(OCC(=O)Nc2ccccc2F)cc1` it was 4.6 µg/mL (≈ 17.7 µM). In the case of `COC(=O)c1ccccc1N1CCS(=O)(=O)CC1` it was over 40.4 µg/mL. The result for `COC(=O)Cc1csc(NCc2ccccc2)n1` reads 37.4 µg/mL (≈ 143 µM). `CCOC(=O)c1cc2c(ccc3nc(C)c(C)c32)[nH]c1C` displayed a kinetic solubility of under 0.3 µg/mL. In the case of `O=C(CN1C(=O)c2ccccc2S1(=O)=O)NCc1ccccc1` it was over 49.6 µg/mL; in that of `O=C(NC1CCNCC1)C1CCCCC1`, over 31.5 µg/mL; in that of `CC1CCN(C(=O)COC(=O)c2ccc(Cl)nc2)CC1`, over 44.5 µg/mL. In the case of `CC(NC(=O)COC(=O)Cc1ccc(Cl)cc1)c1ccccc1` (centres undefined) it was over 49.8 µg/mL. The compound `CCOC(=O)Cn1cnc2scc(-c3ccc(C)c(C)c3)c2c1=O` displayed a kinetic solubility of 22.5 µg/mL (≈ 65.7 µM). In the case of `O=C(O)CCC(=O)Nc1ccc(Oc2ncnc3cc(Cl)ccc23)nc1` it was over 55.9 µg/mL.

In turn, `Cc1ccccc1SCC(=O)OCC(=O)NCc1ccccc1` yielded a solubility (kinetic) of over 49.4 µg/mL. In the case of `COc1ccc(CCOC(=O)c2ccc(N)c([N+](=O)[O-])c2)cc1` it was 1.1 µg/mL (≈ 3.48 µM). In the case of `Cc1cc(C(=O)Nc2ccc([N+](=O)[O-])cn2)cs1` it was 6.2 µg/mL (≈ 23.5 µM); in that of `CC(C)C(=O)Nc1c2c(nn1-c1ccc(F)cc1)CS(=O)(=O)C2`, over 50.6 µg/mL; in that of `Brc1ccc(-c2csc(N3CCCCCC3)n2)cc1`, 1.2 µg/mL (≈ 3.56 µM). In the case of `Nc1cc(=O)[nH]c(SCC(=O)Nc2ccc3c(c2)CCC3)n1` it was 7.8 µg/mL (≈ 24.7 µM); in that of `Cc1cc(OC(=O)N(C)C)nc(SCc2c(Cl)cccc2Cl)n1`, 6.5 µg/mL (≈ 17.5 µM); in that of `O=C(NCc1ccco1)/C(=C/c1ccccc1)NC(=O)c1ccco1`, 42.4 µg/mL (≈ 126 µM). Turning to `COc1ccccc1NC(=S)NC1CCCCCCCCCCC1`, the kinetic solubility was under 0.4 µg/mL. In the case of `CC(NC(=O)CN1CCN(c2ccc(Cl)cc2)CC1)c1ccccc1` (centres undefined) it was 8.8 µg/mL (≈ 24.6 µM); in that of `O=C(O)c1ccccc1Nc1ccnc(C(F)(F)F)c1`, over 42.3 µg/mL; in that of `Cc1cccc(NC(=O)CC2(CC(=O)O)CCCC2)c1`, 41.2 µg/mL (≈ 150 µM). In the case of `COc1cc(/C=C(\C#N)C(=O)NCC2CCCO2)ccc1OCCC(C)C` (centres undefined) it was 7.9 µg/mL (≈ 21.2 µM); in that of `COc1ccccc1C(=O)Nc1nc2ccccc2[nH]1`, 4.2 µg/mL (≈ 15.7 µM); in that of `CCC(C(=O)OC)n1c(-c2ccccc2)nc2ccccc2c1=O` (centres undefined), 1.5 µg/mL (≈ 4.65 µM). As for `CC(C)n1c(SCC(=O)NC2CCCCC2)nnc1-c1ccco1`, the kinetic solubility is over 52.3 µg/mL. In turn, `Cc1cc(=O)[nH]c(SCCc2ccccc2)n1` displayed a solubility (kinetic) of 26.5 µg/mL (≈ 108 µM). In the case of `O=C(Nc1ccccc1)Nc1ccc2c(c1)CCC2` it was 0.4 µg/mL (≈ 1.59 µM). For `COc1ccc(-n2c(SCC(N)=O)nnc2-c2ccco2)cc1`, the kinetic solubility was over 49.6 µg/mL.
